Tested on: patients with advanced cancer
Assay: Phase I clinical trial, daily versus pulsatile dosing of (−)-gossypol: adverse events graded by NCI-CTCAE v3 (Daily N = 38, BID × 3 d N = 21, Weekly N = 12)
Format: in vivo, human
Description: A phase I clinical trial was carried out to compare the maximum tolerated dose and safety of daily (i.e., continuous) versus pulsatile (i.e., intermittent) dosing of (−)-gossypol in patients with advanced cancer. A secondary objective of this study was to identify any anti-tumor activity of (−)-gossypol. Patients were treated with increasing doses of (−)-gossypol according to the following dosing schedules: “Daily” dosing: 5 to 60 mg/day of (−)-gossypol on 21 days per 28 day cycle; “BID×3d” dosing: 30 to 80 mg BID of (−)-gossypol on 3 consecutive days (e.g., Monday-Tuesday-Wednesday) repeated every other week per 28 day cycle; and “Weekly” dosing: 80 to 200 mg of (−)-gossypol once weekly per 28 day cycle. Adverse events (AEs) were graded by NCI-CTCAE v3.

For `Cc1cc2c(C(C)C)c(O)c(O)c(C=O)c2c(O)c1-c1c(C)cc2c(C(C)C)c(O)c(O)c(C=O)c2c1O` [(−)-gossypol], the ALT increase (Daily, Grade ¾) was 5 (13) N (%), the AST increase (Daily, Grade ¾) was 6 (13) N (%) and the Abdominal discomfort (Daily, Grade ¾) was 2 (5) N (%). For the same compound, the Abdominal distention (Daily, Grade ¾) was 0 N (%), the Abdominal pain (Daily, Grade ¾) was 1 (3) N (%) and the Albumin decreased (Daily, Grade ¾) was 0 N (%). The Alkaline phosphatase increase (Daily, Grade ¾) was 0 N (%), the “Anorexia or decreased appetite” value (Daily, Grade ¾) was 1 (3) N (%) and the “Any AE” value (Daily, Grade ¾) was 37 (98) N (%). For the same compound, the Back pain (Daily, Grade ¾) was 0 N (%), the Constipation (Daily, Grade ¾) was 0 N (%) and the Cough (Daily, Grade ¾) was 0 N (%). For the same compound, the Creatinine increased (Daily, Grade ¾) was 0 N (%), the Creatinine phosphokinase increase (Daily, Grade ¾) was 0 N (%) and the Dehydration (Daily, Grade ¾) was 2 (5) N (%). For the same compound, the Diarrhea (Daily, Grade ¾) was 5 (13) N (%), the Dizziness (Daily, Grade ¾) was 0 N (%) and the Dry mouth (Daily, Grade ¾) was 0 N (%). The Dysgeusia (Daily, Grade ¾) was 0 N (%), the Dyspnea (Daily, Grade ¾) was 3 (8) N (%) and the Fatigue/Asthenia (Daily, Grade ¾) was 4 (11) N (%). The Flatulence (Daily, Grade ¾) was 0 N (%), the Headache (Daily, Grade ¾) was 0 N (%) and the Hepatic encephalopathy (Daily, Grade ¾) was 0 N (%). For the same compound, the Hyperbilirubinaemia (Daily, Grade ¾) was 1 (3) N (%), the Hyperkalemia (Daily, Grade ¾) was 0 N (%) and the Hypocalcemia (Daily, Grade ¾) was 2 (5) N (%). For the same compound, the Hypokalemia (Daily, Grade ¾) was 3 (8) N (%), the Hyponatremia (Daily, Grade ¾) was 1 (3) N (%) and the Infection (Daily, Grade ¾) was 1 (3) N (%). For the same compound, the Insomnia (Daily, Grade ¾) was 0 N (%), the Mental status changes (Daily, Grade ¾) was 1 (3) N (%) and the Nausea (Daily, Grade ¾) was 5 (13) N (%). For the same compound, the Pain (Daily, Grade ¾) was 0 N (%), the Pancreatitis (Daily, Grade ¾) was 0 N (%) and the Peripheral edema (Daily, Grade ¾) was 0 N (%). For the same compound, the “Pleural Effusion” value (Daily, Grade ¾) was 2 (5) N (%), the Pneumatosis intestinalis (Daily, Grade ¾) was 0 N (%) and the Pneumonia (Daily, Grade ¾) was 1 (3) N (%). The Proteinurea (Daily, Grade ¾) was 0 N (%), the Pyrexia (Daily, Grade ¾) was 1 (3) N (%) and the “Renal Failure” value (Daily, Grade ¾) was 0 N (%). The Sinusitis (Daily, Grade ¾) was 0 N (%), the “Small intestinal obstruction (ileus)” value (Daily, Grade ¾) was 4 (11) N (%) and the “Troponin I or T increased” value (Daily, Grade ¾) was 1 (3) N (%). The “Urinary Tract Infection” value (Daily, Grade ¾) was 0 N (%), the Vomiting (Daily, Grade ¾) was 7 (18) N (%) and the Weight decreased (Daily, Grade ¾) was 0 N (%). For the same compound, the “White blood cells increased” value (Daily, Grade ¾) was 0 N (%), the ALT increase (Weekly, Grade ½) was 3 (25) N (%) and the AST increase (Weekly, Grade ½) was 1 (8) N (%). The Abdominal discomfort (Weekly, Grade ½) was 0 N (%), the Abdominal distention (Weekly, Grade ½) was 3 (25) N (%) and the Abdominal pain (Weekly, Grade ½) was 2 (17) N (%). For the same compound, the Albumin decreased (Weekly, Grade ½) was 0 N (%), the Alkaline phosphatase increase (Weekly, Grade ½) was 2 (17) N (%) and the “Anorexia or decreased appetite” value (Weekly, Grade ½) was 7 (58) N (%). For the same compound, the “Any AE” value (Weekly, Grade ½) was 10 (83) N (%), the Back pain (Weekly, Grade ½) was 1 (8) N (%) and the Constipation (Weekly, Grade ½) was 4 (33) N (%). The Cough (Weekly, Grade ½) was 0 N (%), the Creatinine increased (Weekly, Grade ½) was 2 (17) N (%) and the Creatinine phosphokinase increase (Weekly, Grade ½) was 0 N (%). The Dehydration (Weekly, Grade ½) was 2 (17) N (%), the Diarrhea (Weekly, Grade ½) was 0 N (%) and the Dizziness (Weekly, Grade ½) was 2 (17) N (%). The Dry mouth (Weekly, Grade ½) was 1 (8) N (%), the Dysgeusia (Weekly, Grade ½) was 2 (17) N (%) and the Dyspnea (Weekly, Grade ½) was 1 (8) N (%). For the same compound, the Fatigue/Asthenia (Weekly, Grade ½) was 8 (67) N (%), the Flatulence (Weekly, Grade ½) was 1 (8) N (%) and the Headache (Weekly, Grade ½) was 1 (8) N (%). For the same compound, the Hepatic encephalopathy (Weekly, Grade ½) was 0 N (%), the Hyperbilirubinaemia (Weekly, Grade ½) was 2 (17) N (%) and the Hyperkalemia (Weekly, Grade ½) was 0 N (%). The Hypocalcemia (Weekly, Grade ½) was 2 (17) N (%), the Hypokalemia (Weekly, Grade ½) was 2 (17) N (%) and the Hyponatremia (Weekly, Grade ½) was 0 N (%). For the same compound, the Infection (Weekly, Grade ½) was 0 N (%), the Insomnia (Weekly, Grade ½) was 3 (25) N (%) and the Mental status changes (Weekly, Grade ½) was 0 N (%). The Nausea (Weekly, Grade ½) was 2 (17) N (%), the Pain (Weekly, Grade ½) was 0 N (%) and the Pancreatitis (Weekly, Grade ½) was 0 N (%). For the same compound, the Peripheral edema (Weekly, Grade ½) was 3 (25) N (%), the “Pleural Effusion” value (Weekly, Grade ½) was 0 N (%) and the Pneumatosis intestinalis (Weekly, Grade ½) was 0 N (%). The Pneumonia (Weekly, Grade ½) was 0 N (%), the Proteinurea (Weekly, Grade ½) was 2 (17) N (%) and the Pyrexia (Weekly, Grade ½) was 0 N (%). The “Renal Failure” value (Weekly, Grade ½) was 1 (8) N (%), the Sinusitis (Weekly, Grade ½) was 0 N (%) and the “Small intestinal obstruction (ileus)” value (Weekly, Grade ½) was 0 N (%). The “Troponin I or T increased” value (Weekly, Grade ½) was 1 (8) N (%), the “Urinary Tract Infection” value (Weekly, Grade ½) was 2 (17) N (%) and the Vomiting (Weekly, Grade ½) was 0 N (%). For the same compound, the Weight decreased (Weekly, Grade ½) was 2 (17) N (%), the “White blood cells increased” value (Weekly, Grade ½) was 0 N (%) and the ALT increase (Weekly, Grade ¾) was 1 (8) N (%). For the same compound, the AST increase (Weekly, Grade ¾) was 4 (33) N (%), the Abdominal discomfort (Weekly, Grade ¾) was 0 N (%) and the Abdominal distention (Weekly, Grade ¾) was 0 N (%). The Abdominal pain (Weekly, Grade ¾) was 0 N (%), the Albumin decreased (Weekly, Grade ¾) was 1 (8) N (%) and the Alkaline phosphatase increase (Weekly, Grade ¾) was 1 (8) N (%). For the same compound, the “Anorexia or decreased appetite” value (Weekly, Grade ¾) was 0 N (%), the “Any AE” value (Weekly, Grade ¾) was 10 (48) N (%) and the Back pain (Weekly, Grade ¾) was 0 N (%). For the same compound, the Constipation (Weekly, Grade ¾) was 0 N (%), the Cough (Weekly, Grade ¾) was 0 N (%) and the Creatinine increased (Weekly, Grade ¾) was 1 (8) N (%). The Creatinine phosphokinase increase (Weekly, Grade ¾) was 1 (8) N (%), the Dehydration (Weekly, Grade ¾) was 2 (17) N (%) and the Diarrhea (Weekly, Grade ¾) was 0 N (%). The Dizziness (Weekly, Grade ¾) was 0 N (%), the Dry mouth (Weekly, Grade ¾) was 0 N (%) and the Dysgeusia (Weekly, Grade ¾) was 0 N (%). The Dyspnea (Weekly, Grade ¾) was 1 (8) N (%), the Fatigue/Asthenia (Weekly, Grade ¾) was 1 (8) N (%) and the Flatulence (Weekly, Grade ¾) was 0 N (%). The Headache (Weekly, Grade ¾) was 0 N (%), the Hepatic encephalopathy (Weekly, Grade ¾) was 1 (8) N (%) and the Hyperbilirubinaemia (Weekly, Grade ¾) was 2 (17) N (%). The Hyperkalemia (Weekly, Grade ¾) was 0 N (%), the Hypocalcemia (Weekly, Grade ¾) was 0 N (%) and the Hypokalemia (Weekly, Grade ¾) was 1 (8) N (%). The Hyponatremia (Weekly, Grade ¾) was 0 N (%), the Infection (Weekly, Grade ¾) was 1 (8) N (%) and the Insomnia (Weekly, Grade ¾) was 0 N (%). The Mental status changes (Weekly, Grade ¾) was 1 (8) N (%), the Nausea (Weekly, Grade ¾) was 0 N (%) and the Pain (Weekly, Grade ¾) was 0 N (%). For the same compound, the Pancreatitis (Weekly, Grade ¾) was 0 N (%), the Peripheral edema (Weekly, Grade ¾) was 0 N (%) and the “Pleural Effusion” value (Weekly, Grade ¾) was 1 (8) N (%). For the same compound, the Pneumatosis intestinalis (Weekly, Grade ¾) was 1 (8) N (%), the Pneumonia (Weekly, Grade ¾) was 0 N (%) and the Proteinurea (Weekly, Grade ¾) was 0 N (%). The Pyrexia (Weekly, Grade ¾) was 1 (8) N (%), the “Renal Failure” value (Weekly, Grade ¾) was 0 N (%) and the Sinusitis (Weekly, Grade ¾) was 0 N (%). The “Small intestinal obstruction (ileus)” value (Weekly, Grade ¾) was 2 (8) N (%), the “Troponin I or T increased” value (Weekly, Grade ¾) was 2 (17) N (%) and the “Urinary Tract Infection” value (Weekly, Grade ¾) was 0 N (%). For the same compound, the Vomiting (Weekly, Grade ¾) was 0 N (%), the Weight decreased (Weekly, Grade ¾) was 0 N (%) and the “White blood cells increased” value (Weekly, Grade ¾) was 0 N (%). For the same compound, the “Percentage of AEs, particularly Grade 3/4 AEs” value (pulsatile dosing (BID×3d and Weekly) as compared to continuous daily dosing) was “reduced percentage of AEs”.

— patent US20100189683A1, “Pulsatile Dosing of Gossypol for Treatment of Disease” (Ascenta Therapeutics, Inc., priority 2008, published 2010)
